Where two headings read alike, the source gives them in different places.
Key:
barnyardgrass [1] = assay: Test B pre-/postemergence herbicide test; format: in vivo, Echinochloa crus-galli; settings: Echinochloa crus-galli; for pest or weed control at 125 g/ha: 125 g ai/ha
Method in brief: (§1)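 Seeds were planted and treated preemergence with compounds formulated in a non-phytotoxic solvent mixture containing surfactant, while plants at the 1- to 4-leaf stage (2 to 18 cm) received postemergence sprays. Flooded paddy plants were grown to the 2-leaf stage. After 13 to 15 days in a greenhouse, injury was visually rated 0–100 against untreated controls.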

Surinam grass = assay: Test B pre-/postemergence herbicide test; format: in vivo, Urochloa decumbens; settings: Urochloa decumbens; for pest or weed control at 125 g/ha: 125 g ai/ha
Method in brief: (§2)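 Formulation: non-phytotoxic solvent mix with surfactant. Timing: preemergence on seed and postemergence on 2–18 cm plants, applied concurrently. Readout after 13–15 d greenhouse: visual 0–100 control rating against controls.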

cocklebur = assay: Test B pre-/postemergence herbicide test; format: in vivo, Xanthium strumarium; settings: Xanthium strumarium; for pest or weed control at 125 g/ha: 125 g ai/ha
Method in brief: as §1

corn = assay: Test B pre-/postemergence herbicide test; format: in vivo, Zea mays; settings: Zea mays; for plant injury at 125 g/ha: 125 g ai/ha
Method in brief: as §2

large crabgrass = assay: Test B pre-/postemergence herbicide test; format: in vivo, Digitaria sanguinalis; settings: Digitaria sanguinalis; for pest or weed control at 125 g/ha: 125 g ai/ha
Method in brief: as §2

giant foxtail = assay: Test B pre-/postemergence herbicide test; format: in vivo, Setaria faberi; settings: Setaria faberi, 336 h; for pest or weed control at 125 g/ha: 125 g ai/ha
Method in brief: as §2

lambsquarters = assay: Test B pre-/postemergence herbicide test; format: in vivo, Chenopodium album; settings: Chenopodium album, 336 h; for pest or weed control at 125 g/ha: 125 g ai/ha
Method in brief: as §2

morningglory = assay: Test B pre-/postemergence herbicide test; format: in vivo, Ipomoea coccinea; settings: Ipomoea, 336 h; for pest or weed control at 125 g/ha: 125 g ai/ha
Method in brief: as §1

pigweed = assay: Test B pre-/postemergence herbicide test; format: in vivo, Amaranthus retroflexus; settings: Amaranthus retroflexus, 336 h; for pest or weed control at 125 g/ha: 125 g ai/ha
Method in brief: as §2

blackgrass = assay: Test B postemergence herbicide test; format: in vivo, Alopecurus myosuroides; settings: Alopecurus myosuroides, post-emergence, 336 h, postemergence, read-out: Blackgrass plant response rating
Method in brief: (§3)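 Postemergence plants were sprayed with formulated test chemicals at 2 to 18 cm height (1- to 4-leaf stage); paddy species were grown to the 2-leaf stage. After 13 to 15 days in a greenhouse, injury was rated visually against untreated controls on a 0–100 scale (0 = no effect, 100 = complete control).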

wheat = assay: Test B postemergence herbicide test; format: in vivo, Triticum aestivum; settings: Triticum aestivum, post-emergence, 336 h, postemergence, read-out: Wheat plant response rating
Method in brief: (§4)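 Greenhouse test; postemergence application to plants at 1–4 leaves (2–18 cm); paddy species at 2 leaves; evaluated visually vs controls at 13–15 days; scale 0–100 (100 = complete control).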

wild oat = assay: Test B postemergence herbicide test; format: in vivo, Avena fatua; settings: Avena fatua, post-emergence, 336 h, postemergence, read-out: Oat, Wild plant response rating
Method in brief: as §4

rice = assay: Test B flooded paddy test; format: in vivo, Oryza sativa; settings: Oryza sativa, 336 h, 1000 g ai/ha, visual rating, scale 0 to 100 (0 no effect, 100 complete control), 13 to 15 days, read-out: Rice plant response rating
Method in brief: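 Scale 0–100: zero equals no visible effect, 100 complete control, judged by eye relative to controls. Timing: 13 to 15 days in greenhouse post-treatment. Growth stage at spraying: two leaves (paddy) or one to four leaves, 2–18 cm (postemergence).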

[2] = test system: small flower umbrella sedge; assay: Test B flooded paddy test; format: in vivo, Cyperus difformis; settings: Cyperus difformis, 336 h, 1000 g ai/ha, visual rating, scale 0 to 100 (0 no effect, 100 complete control), 13 to 15 days, read-out: Sedge, Umbrella plant response rating
Method in brief: as §3

ducksalad = assay: Test B flooded paddy test; format: in vivo, Heteranthera limosa; settings: Heteranthera limosa, 336 h, 1000 g ai/ha, visual rating, scale 0 to 100 (0 no effect, 100 complete control), 13 to 15 days, read-out: Ducksalad plant response rating
Method in brief: as §3

barnyardgrass [3] = assay: Test B flooded paddy test; format: in vivo, Echinochloa crus-galli; settings: Echinochloa crus-galli, 336 h, 1000 g ai/ha, visual rating, scale 0 to 100 (0 no effect, 100 complete control), 13 to 15 days, read-out: Barnyardgrass plant response rating
Method in brief: as §3

[4] = 125 g ai/ha, visual rating, scale 0 (no effect) to 100 (complete control)

Structure (SMILES): CCc1cn(C(C)(C)C)nc1C(=O)Nc1cccc(C(=O)N(CC)CC)c1 [Compound 168, N-[3-[(diethylamino)carbonyl]phenyl]-1-(1,1-dimethylethyl)-4-ethyl-1H-pyrazole-3-carboxamide]
- pest or weed control at 31 g/ha (barnyardgrass [1]; post-emergence, postemergence, 31 g ai/ha, scale 0 to 100, read-out: Barnyardgrass plant response rating): 0%
- pest or weed control at 125 g/ha (barnyardgrass [1]; post-emergence, postemergence, visual rating, scale 0 (no effect) to 100 (complete control), read-out: Barnyardgrass plant response rating): 50%
- pest or weed control at 125 g/ha (barnyardgrass [1]; pre-emergence, 0 = no effect, 100 = complete control, read-out: Barnyardgrass plant response rating (0 to 100 scale)): 70%
- pest or weed control at 31 g/ha (Surinam grass; post-emergence, postemergence, 31 g ai/ha, scale 0 to 100, read-out: Surinam Grass plant response rating): 10%
- pest or weed control at 125 g/ha (Surinam grass; post-emergence, postemergence, visual rating, scale 0 (no effect) to 100 (complete control), read-out: Surinam Grass plant response rating): 20%
- pest or weed control at 125 g/ha (Surinam grass; pre-emergence, 0 = no effect, 100 = complete control, read-out: Surinam Grass plant response rating (0 to 100 scale)): 50%
- pest or weed control at 31 g/ha (cocklebur; post-emergence, postemergence, 31 g ai/ha, scale 0 to 100, read-out: Cocklebur plant response rating): 30%
- pest or weed control at 125 g/ha (cocklebur; post-emergence, postemergence, visual rating, scale 0 (no effect) to 100 (complete control), read-out: Cocklebur plant response rating): 70%
- pest or weed control at 125 g/ha (cocklebur; pre-emergence, 0 = no effect, 100 = complete control, read-out: Cocklebur plant response rating (0 to 100 scale)): 0%
- plant injury at 31 g/ha (corn; post-emergence, postemergence, 31 g ai/ha, scale 0 to 100, read-out: Corn plant response rating): 10%
- plant injury at 125 g/ha (corn; post-emergence, postemergence, visual rating, scale 0 (no effect) to 100 (complete control), read-out: Corn plant response rating): 50%
- plant injury at 125 g/ha (corn; pre-emergence, 0 = no effect, 100 = complete control, read-out: Corn plant response rating (0 to 100 scale)): 0%
- pest or weed control at 31 g/ha (large crabgrass; post-emergence, postemergence, 31 g ai/ha, scale 0 to 100, read-out: Crabgrass, Large plant response rating): 10%
- pest or weed control at 125 g/ha (large crabgrass; post-emergence, postemergence, visual rating, scale 0 (no effect) to 100 (complete control), read-out: Crabgrass, Large plant response rating): 20%
- pest or weed control at 125 g/ha (large crabgrass; pre-emergence, 0 = no effect, 100 = complete control, read-out: Crabgrass, Large plant response rating (0 to 100 scale)): 100%
- pest or weed control at 31 g/ha (giant foxtail; post-emergence, postemergence, 31 g ai/ha, scale 0 to 100, read-out: Foxtail, Giant plant response rating): 0%
- pest or weed control at 125 g/ha (giant foxtail; post-emergence, postemergence, visual rating, scale 0 (no effect) to 100 (complete control), read-out: Foxtail, Giant plant response rating): 20%
- pest or weed control at 125 g/ha (giant foxtail; pre-emergence, 0 = no effect, 100 = complete control, read-out: Foxtail, Giant plant response rating (0 to 100 scale)): 90%
- pest or weed control at 31 g/ha (lambsquarters; post-emergence, postemergence, 31 g ai/ha, scale 0 to 100, read-out: Lambsquarters plant response rating): 50%
- pest or weed control at 125 g/ha (lambsquarters; post-emergence, postemergence, visual rating, scale 0 (no effect) to 100 (complete control), read-out: Lambsquarters plant response rating): 70%
- pest or weed control at 125 g/ha (lambsquarters; pre-emergence, 0 = no effect, 100 = complete control, read-out: Lambsquarters plant response rating (0 to 100 scale)): 90%
- pest or weed control at 31 g/ha (morningglory; post-emergence, postemergence, 31 g ai/ha, scale 0 to 100, read-out: Morningglory plant response rating): 20%
- pest or weed control at 125 g/ha (morningglory; post-emergence, postemergence, visual rating, scale 0 (no effect) to 100 (complete control), read-out: Morningglory plant response rating): 70%
- pest or weed control at 125 g/ha (morningglory; pre-emergence, 0 = no effect, 100 = complete control, read-out: Morningglory plant response rating (0 to 100 scale)): 0%
- pest or weed control at 31 g/ha (pigweed; post-emergence, postemergence, 31 g ai/ha, scale 0 to 100, read-out: Pigweed plant response rating): 50%
- pest or weed control at 125 g/ha (pigweed; post-emergence, postemergence, visual rating, scale 0 (no effect) to 100 (complete control), read-out: Pigweed plant response rating): 70%
- pest or weed control at 125 g/ha (pigweed; pre-emergence, 0 = no effect, 100 = complete control, read-out: Pigweed plant response rating (0 to 100 scale)): 100%
- pest or weed control at 31 g/ha (blackgrass; 31 g ai/ha, scale 0 to 100): 0%
- pest or weed control at 125 g/ha (blackgrass; [4]): 10%
- plant injury at 31 g/ha (wheat; 31 g ai/ha, scale 0 to 100): 0%
- plant injury at 125 g/ha (wheat; [4]): 20%
- pest or weed control at 31 g/ha (wild oat; 31 g ai/ha, scale 0 to 100): 10%
- pest or weed control at 125 g/ha (wild oat; [4]): 20%
- plant injury at 1000 g/ha (rice): 40%
- pest or weed control at 1000 g/ha [2]: 90%
- pest or weed control at 1000 g/ha (ducksalad): 70%
- pest or weed control at 1000 g/ha (barnyardgrass [3]): 50%

— US20060069132A1, “Azolecarboxamide herbicides” (priority 2004, published 2006)
